Source: US5482942A, “(3,4-dioxocyclobuten-1-yl)chromene, indene, and dihydronaphthalenone derivatives as smooth muscle relaxants” (American Home Products Corporation, priority 1994, dated 1996)

Tests used:
Isolated Rat Bladder = assay: Inhibition of contractions in isolated rat bladder strips (bladder smooth muscle relaxing activity); set-up: species or system Sprague-Dawley rats; settings: 0.5 h, 15 mM KCl-enhanced contractions, 30 min challenge, read-out: IC50 or (% Inhibition of Bladder Contraction at 30 μM)
Procedure: Bladder smooth muscle relaxing activity of the compounds of this invention was established in accordance with standard pharmaceutically accepted test procedures in representative compounds as follows:
Sprague-Dawley rats (150-200 g) are rendered unconscious by CO2 asphyxiation and then euthanized by cervical dislocation. The bladder is removed into warm (37° C.) physiological salt solution (PSS) of the following composition (mM): NaCl, 118.4; KCl, 4.7; CaCl2, 2.5; […]; NaHCO3, 24.9; KH2 PO4, 1.2; glucose, 11.1; EDTA, 0.023; gassed with […]; pH 7.4. The bladder is opened and then cut into strips 1-2 mm in width and 7-10 mm in length. The strips are subsequently suspended in a 10 ml tissue bath under an initial resting tension of 1.5 g. The strips are held in place by two surgical clips one of which is attached to fixed hook while the other is attached to an isometric force transducer. […] The carbachol is then washed out and the tissue allowed to relax to its resting level of activity. Following one further 30 min period of recovery an additional 15 mM KCl are introduced into the tissue bath. […] Contractile activity is measured for each compound or vehicle concentration during the last min of a 30 min challenge. […]

[1] = tested on: Isolated Rat Aortic Tissue; assay: Inhibition of contractions in isolated rat aortic rings (aortic smooth muscle relaxing activity); set-up: species or system Sprague-Dawley rats; settings: isolated rat thoracic aorta rings, 25 mM KCl contracture, cumulative addition; read-out: IC50 or (% Inhibition of Aorta Contraction at 30 μM)
Procedure: Aortic smooth muscle relaxing activity of the compounds of this invention was established in accordance with standard pharmaceutically accepted test procedures in representative compounds as follows:
Sprague-Dawley rats (150-200 g) are rendered unconscious by CO2 asphyxiation and then euthanized by cervical dislocation. The thoracic aorta is removed into warm (37° C.) Krebs-Henseleit solution. The aorta is cleaned of fat and loose adventitia and cut into rings 3-4 mm in width. The rings are subsequently suspended between two stainless steel wire tissue holders in a 10 ml tissue bath. One wire tissue holder is attached to fixed hook while the other is attached to an isometric force transducer. Resting tension is set at 1.0 g. The tissues are allowed to recover for a period of 60 mins prior to beginning the experiment. The tissues are challenged with 25 mM KCl to elicit a contracture. The tissue are then washed repeatedly with fresh Krebs-Henseleit solution over a period of 30 mins and allowed to recover to baseline tension. 25 mM KCl is then introduced into the tissue bath to evoke a contracture that is allowed to stabilize for not less than 45 mins. Increasing concentrations of test compound or vehicle are then added to the tissue bath in a cumulative fashion.
Isometric force developed by the aortic rings is measured using force transducer and recorded on a polygraph. […]

| Structure (SMILES) | IC50 (Isolated Rat Bladder) [µM] | IC50 [1] [µM] |
| --- | --- | --- |
| CC1(C)C=C(c2c(N)c(=O)c2=O)c2cc(C#N)ccc2O1 [Example 2, 4-(2-Amino-3,4-dioxo-cyclobut-1-enyl)-2,2-dimethyl-2H-chromene-6-carbonitrile] | 0.39 ± 0.04 | 0.15 ± 0.02 |
| CNc1c(C2=CC(C)(C)Oc3ccc(C#N)cc32)c(=O)c1=O [Example 3, 2,2-Dimethyl-4-(2-methylamino-3,4-dioxo-cyclobut-1-enyl)-2H-chromene-6-carbonitrile] | 4.1 ± 1.8 | 0.56 ± 0.04 |
